Source: patent publication US8802597B2, “Herbicidal pyrimidines” (E I du Pont de Nemours and Company, priority 2003, dated 2014)
Read-outs that look alike come from different tables or passages of the source.

Tests used:
Test in all cases: Test C pre/postemergence
Format in all cases: in vivo
[1] = test system: goosegrass (Eleusine indica); conditions: Eleusine indica, read-out: Plant response rating, Goosegrass; for pest or weed control at 250 g/ha: 250 g ai/ha; for pest or weed control at 500 g/ha: 500 g ai/ha
Procedure, shortened: (§1)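 Greenhouse pot test: seeds treated preemergence, or plants at 2–18 cm (1- to 4-leaf stage) treated postemergence, with compound in non-phytotoxic solvent plus surfactant. Visual rating versus untreated controls after 12–14 days, scale 0 (no effect) to 100 (complete control); dash means not tested.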

[2] = test system: kochia (Kochia scoparia); conditions: Bassia scoparia; for pest or weed control at 62 g/ha: 62 g ai/ha; for pest or weed control at 125 g/ha: 125 g ai/ha; for pest or weed control at 250 g/ha: 250 g ai/ha; for pest or weed control at 500 g/ha: 500 g ai/ha
Procedure, shortened: as §1

[3] = test system: lambsquarters (Chenopodium album); conditions: Chenopodium album; for pest or weed control at 62 g/ha: 62 g ai/ha; for pest or weed control at 125 g/ha: 125 g ai/ha; for pest or weed control at 250 g/ha: 250 g ai/ha; for pest or weed control at 500 g/ha: 500 g ai/ha
Procedure, shortened: as §1

[4] = test system: pigweed (Amaranthus retroflexus); conditions: Amaranthus retroflexus; for pest or weed control at 62 g/ha: 62 g ai/ha; for pest or weed control at 125 g/ha: 125 g ai/ha; for pest or weed control at 250 g/ha: 250 g ai/ha; for pest or weed control at 500 g/ha: 500 g ai/ha
Procedure, shortened: as §1

[5] = test system: velvetleaf (Abutilon theophrasti); conditions: Abutilon theophrasti; for pest or weed control at 62 g/ha: 62 g ai/ha; for pest or weed control at 125 g/ha: 125 g ai/ha; for pest or weed control at 250 g/ha: 250 g ai/ha; for pest or weed control at 500 g/ha: 500 g ai/ha
Procedure, shortened: as §1

[6] = test system: yellow nutsedge (Cyperus esculentus); conditions: Cyperus; for pest or weed control at 62 g/ha: 62 g ai/ha; for pest or weed control at 125 g/ha: 125 g ai/ha; for pest or weed control at 250 g/ha: 250 g ai/ha; for pest or weed control at 500 g/ha: 500 g ai/ha
Procedure, shortened: as §1

[7] = post-emergence, Postemergence, scale 0 to 100
[8] = pre-emergence, Preemergence, scale 0 to 100
[9] = post-emergence, Postemergence, scale 0 to 100 (0 no effect, 100 complete control), read-out: Kochia plant response rating
[10] = post-emergence, Postemergence, scale 0 to 100, read-out: Plant response rating, Kochia
[11] = pre-emergence, Preemergence, scale 0 to 100, read-out: Plant response rating, Kochia
[12] = post-emergence, Postemergence, scale 0 to 100 (0 no effect, 100 complete control), read-out: Lambsquarters plant response rating
[13] = post-emergence, Postemergence, scale 0 to 100, read-out: Plant response rating, Lambsquarters
[14] = pre-emergence, Preemergence, scale 0 to 100, read-out: Plant response rating, Lambsquarters
[15] = post-emergence, Postemergence, scale 0 to 100 (0 no effect, 100 complete control), read-out: Pigweed plant response rating
[16] = post-emergence, Postemergence, scale 0 to 100, read-out: Plant response rating, Pigweed
[17] = pre-emergence, Preemergence, scale 0 to 100, read-out: Plant response rating, Pigweed
[18] = post-emergence, Postemergence, scale 0 to 100 (0 no effect, 100 complete control), read-out: Velvetleaf plant response rating
[19] = post-emergence, Postemergence, scale 0 to 100, read-out: Plant response rating, Velvetleaf
[20] = pre-emergence, Preemergence, scale 0 to 100, read-out: Plant response rating, Velvetleaf
[21] = post-emergence, Postemergence, scale 0 to 100 (0 no effect, 100 complete control), read-out: Nutsedge, Yellow plant response rating
[22] = post-emergence, Postemergence, scale 0 to 100, read-out: Plant response rating, Nutsedge, Yellow
[23] = pre-emergence, Preemergence, scale 0 to 100, read-out: Plant response rating, Nutsedge, Yellow

Nc1nc(C2CC2)nc(C(=O)O)c1Br [Compound 8]
pest or weed control at 250 g/ha [1, 7]: 45% | pest or weed control at 500 g/ha [1, 7]: 60% | pest or weed control at 62 g/ha ([1]; pre-emergence, Preemergence, 62 g ai/ha, scale 0 to 100, 0 no effect, 100 complete control): 0% | pest or weed control at 125 g/ha ([1]; pre-emergence, Preemergence, 125 g ai/ha, scale 0 to 100): 0% | pest or weed control at 250 g/ha [1, 8]: 35% | pest or weed control at 500 g/ha [1, 8]: 45% | pest or weed control at 62 g/ha [2, 9]: 95% | pest or weed control at 125 g/ha [2, 9]: 100% | pest or weed control at 250 g/ha [2, 10]: 100% | pest or weed control at 500 g/ha [2, 10]: 100% | pest or weed control at 62 g/ha ([2]; pre-emergence, Preemergence, scale 0 to 100, 0 no effect, 100 complete control, read-out: Plant response rating, Kochia): 50% | pest or weed control at 125 g/ha [2, 11]: 85% | pest or weed control at 250 g/ha [2, 11]: 100% | pest or weed control at 500 g/ha [2, 11]: 100% | pest or weed control at 62 g/ha [3, 12]: 75% | pest or weed control at 125 g/ha [3, 12]: 100% | pest or weed control at 250 g/ha [3, 13]: 100% | pest or weed control at 500 g/ha [3, 13]: 100% | pest or weed control at 62 g/ha ([3]; pre-emergence, Preemergence, scale 0 to 100, 0 no effect, 100 complete control, read-out: Plant response rating, Lambsquarters): 0% | pest or weed control at 125 g/ha [3, 14]: 20% | pest or weed control at 250 g/ha [3, 14]: 90% | pest or weed control at 500 g/ha [3, 14]: 100% | pest or weed control at 62 g/ha [4, 15]: 70% | pest or weed control at 125 g/ha [4, 15]: 75% | pest or weed control at 250 g/ha [4, 16]: 100% | pest or weed control at 500 g/ha [4, 16]: 100% | pest or weed control at 62 g/ha ([4]; pre-emergence, Preemergence, scale 0 to 100, 0 no effect, 100 complete control, read-out: Plant response rating, Pigweed): 65% | pest or weed control at 125 g/ha [4, 17]: 85% | pest or weed control at 250 g/ha [4, 17]: 90% | pest or weed control at 500 g/ha [4, 17]: 95% | pest or weed control at 62 g/ha [5, 18]: 60% | pest or weed control at 125 g/ha [5, 18]: 70% | pest or weed control at 250 g/ha [5, 19]: 85% | pest or weed control at 500 g/ha [5, 19]: 95% | pest or weed control at 62 g/ha ([5]; pre-emergence, Preemergence, scale 0 to 100, 0 no effect, 100 complete control, read-out: Plant response rating, Velvetleaf): 65% | pest or weed control at 125 g/ha [5, 20]: 75% | pest or weed control at 250 g/ha [5, 20]: 100% | pest or weed control at 500 g/ha [5, 20]: 100% | pest or weed control at 62 g/ha [6, 21]: 0% | pest or weed control at 125 g/ha [6, 21]: 0% | pest or weed control at 250 g/ha [6, 22]: 0% | pest or weed control at 500 g/ha [6, 22]: 0% | pest or weed control at 62 g/ha ([6]; pre-emergence, Preemergence, scale 0 to 100, 0 no effect, 100 complete control, read-out: Plant response rating, Nutsedge, Yellow): 0% | pest or weed control at 125 g/ha [6, 23]: 0% | pest or weed control at 250 g/ha [6, 23]: 100% | pest or weed control at 500 g/ha [6, 23]: 100%
